“Also recorded” adds a separate entry of the source.
System: RPE injury by laser photocoagulation in Dutch-belted rabbits
Experiment: In vivo laser injury model: retinal immunohistochemistry, quantification of cell proliferation
Set-up: species or system rabbit
Settings: for percentage of Ki67+ cells in the choroid vs control (in words): 1- or 4-week time points
Protocol: Following the laser procedure, the eyes were anesthetized once more with topical proparacaine. Povidone-iodine was applied to the conjunctiva or sclera using sterile Q-tips. Either 50 μL of 15 mM LATS kinase inhibitor (LKI), or vehicle control, was injected per eye using 1 mL Luer-lock syringe with a 27G 1½ inch needle. The second generation LKI, TDI-011536, was used as a micro-suspension formulation prepared in phosphate buffer solution (PBS; Sigma) supplemented with 0.5% carboxymethyl cellulose (Sigma) and 0.5% Kolliphor P 188 Bio (BASF Pharma). Intravitreal injections containing LKI were administered in the right eye and control injections were administered in the left eye. Injections were administered 1-2 mm posterior to the superotemporal or superonasal limbus and delivery of each compound was confirmed on indirect ophthalmoscopy.
Eyes used for immunofluorescence staining were processed according to a previously described protocol. Briefly, eyes were immediately placed in 50 mL 4% PFA in PBS on ice. After 15 minutes, eyes were removed from 4% PFA in PBS and the cornea and iris were removed under a dissecting microscope. With the cornea and iris removed, eyes were placed back in 50 mL 4% PFA and agitated overnight at 4° C. The following morning, the lens was removed. Eyes were then placed in 50 mL of 30% sucrose in PBS at 4° C. for cryoprotection. Once cryoprotection was complete, eyes were removed from 30% sucrose solution and embedded in optimal cutting temperature (OCT) compound.
Following embedding, eyes were mounted on a Leica cryostat (Leica Microsystems, Wetzlar, Germany) for sectioning. All retinal sections were 14 μm thickness and attached to a glass slide. A list of materials used can be found in Table 1.
To quantify RPE proliferation at the site of laser injury in vivo, regions 400 μm in width were centered on the outer nuclear layer (ONL) defect. Laser spots with ONL defects <30 μm in diameter, retinal detachments >225 μm, or an adjacent laser spot <200 μm away from the center of the ONL defect were excluded from analysis. Additionally, laser spots with significant tissue folding or tears were excluded. RPE cross-sectional area in μm^2 was obtained using the Wand Tool in QuPath using the RPE65 channel. RPE proliferation was quantified as the number of Ki67+ cells divided by DAPI+ cells within the RPE layer, expressed as a percentage. Choroidal proliferation was quantified as the number of Ki67+ cells divided by DAPI+ cells in the choroid.
To evaluate the effect of LKI on Müller glia at the site of injury, glial cell proliferation was quantified as the number of Ki67/Sox2 doubly positive cells divided by total number of Sox2/DAPI doubly positive cells within the 400 μm laser region, expressed as a percentage.
To evaluate the effect of LKI in undamaged retina, regions 400 μm in width in the peripheral retina were analyzed. The percentages of Ki67+ cells in the RPE layer, Ki67/Sox2 doubly positive cells, and Ki67+ cells in the choroid in unaffected regions were calculated in an identical fashion.
To further evaluate the effect of Lats kinase inhibition on the RPE injury response in vivo, eyes injected with LKI (n=9 eyes) or vehicle (n=8 eyes) from three independent experiments were cryosectioned and immunolabeled with Ki-67, a marker of cell proliferation. Additionally, sections were labeled with RPE65 to visualize RPE, Sox2 to visualize Müller glia, and Dapi to label all cell nuclei. […] RPE cross-sectional area was 14129±5605 μm^2 in LKI laser spots and 6221±914.2 μm^2 in control laser spots (P<0.0001). RPE maximal thickness was 56.36±19.23 μm in LKI laser spots and 23.08±8.46 μm in control laser spots (P<0.0001). Within the RPE layer, there was a significant increase in Ki67+ cells with LKI compared to the control (FIG. 5A, 5D). The percentage of Ki67+ RPE was 8.75±4.22% in LKI laser spots and 1.55±3.21% in control laser spots (P<0.001). […]

[1] = laser spots, 1 week, intravitreal 50 μL of 15 mM, mean±SD
[2] = laser spots, 1 week, listed as LKI

## O=C(/N=c1\scc(CO)n1Cc1ccccc1)c1c[nH]c2ncccc12 [TDI-011536]
1 week, listed as LKI
  Ki67+ (Sox2/Ki67 doubly positive) Müller glia in undamaged regions (outside of laser spots): no Sox2/Ki67++ cells
  Ki67+ cells within the RPE layer in undamaged regions (outside of laser spots): no Ki67+ RPE cells
4 weeks, listed as LKI
  Ki67+ (Sox2/Ki67 doubly positive) Müller glia in undamaged regions: no Sox2/Ki67++ cells
  Ki67+ cells within the RPE layer in undamaged regions: no Ki67+ RPE cells
Laser regions
  percentage of Ki67+ cells in the choroid vs control (in words): no significant difference
[1]
  RPE cross-sectional area: 14129±5605 μm^2
  RPE maximal thickness: 56.36±19.23 μm
[2]
  Ki67+ Sox2+ cells (Müller glia) compared to control (in words): Sox2+ and Ki67+Müller glia were observed; also recorded: significantly in increased
  RPE cross-sectional area compared to control (in words): increase in underlying RPE cross-sectional area; also recorded: significantly increased
  percentage of Ki67+ RPE cells compared to control (in words): increase; also recorded: significantly increased
Laser spots, 1 week, mean±SD
  Ki67+ cells within the choroid: 6.66±5.37%
  percentage of Ki67+ RPE (Ki67+ cells within the RPE layer): 8.75±4.22%
  percentage of Ki67+ Sox2+ cells (Müller glia): 11.00±5.11%
Laser spots, 4 weeks
  Ki67+ Sox2+ cells (Müller glia) compared to control (in words): no significant difference
  RPE maximal thickness compared to control (in words): increase in underlying RPE cross-sectional area and maximal thickness
  percentage of Ki67+ RPE cells compared to control (in words): no significant difference
Laser spots, 4 weeks, intravitreal 50 μL of 15 mM, mean±SD
  RPE cross-sectional area: 15800 ± 6530 µm²
Laser spots, 4 weeks, listed as LKI
  RPE cross-sectional area compared to control (in words): increase in RPE cross-sectional area; also recorded: significantly increased
Laser spots, 4 weeks, mean±SD
  Ki67+ cells within the choroid: 0.39±0.71%
  percentage of Ki67+ RPE (Ki67+ cells within the RPE layer): 0.29±0.90%
  percentage of Ki67+ Sox2+ cells (Müller glia): 1.23±3.25%
rabbits, intravitreal 50 μL of 15 mM microsuspension
  overall effect of intravitreal LKI microsuspension in the laser injury model (in words): extensive RPE proliferation and wound healing without measurable effects on off-target cell types or uninjured regions
Undamaged regions
  percentage of Ki67+ cells in the choroid vs control (in words): no significant difference

Source: US20260284020A1, “LATS KINASE INHIBITOR TO TREAT RETINAL DEGENERATION” (Children's Hospital Los Angeles, priority 2023, published 2026)
